Measurements from PMC5386260, “Acute development of cortical porosity and endosteal naïve bone formation from the daily but not weekly short-term administration of PTH in rabbit” (PLoS ONE, 2017).
Where two headings read alike, the source gives them in different places.

Assay: Plasma TPTD concentration and pharmacokinetics (Rat PTH IRMA Kit, non-compartmental model)
Type: in vivo, rabbit
Details: for level at 1 h / level at 2 h / level at 5 min / level at 0.25 h / level at 0.5 h: female, New Zealand White (Kbl:NZW), rabbit, plasma, sc, IRMA, mean; for AUC / Cmax / Tmax / half-life: in vivo; for half-life: read-out: T1/2 (elimination half-life) of plasma TPTD (converted)
Text: Seventeen female New Zealand White rabbits (Kbl:NZW) were purchased from Kitayama Labs (Nagano, Japan) and were allowed to acclimatize with free access to water and food for 6 days before use. Throughout the experimental study, the animals were housed individually under a 12-h light/dark cycle with free access to water, but their food intake was restricted to 120g /day (LRC4, standard diet for rabbits; Oriental Yeast, Tokyo, Japan). The animals at 6 months of age were divided into 5 groups and were subcutaneously injected with 20 or 40 μg/kg of TPTD once-daily (D20 group [n = 3] and D40 group [n = 3], 140 or 280 μg/kg of TPTD once-weekly (W140 group [n = 3] and W280 group [n = 4]) for four weeks (Table 1). For the high-dose administration of TPTD, the dosage in once-daily treatment was set at 40 μg/kg/day based on a previous study, while the dosage of once-weekly TPTD treatment was set at 280 μg/kg/week; thus, the cumulative dose of TPTD each week was the same with the two treatment frequencies. In the W140 and W280 groups, saline was administered every day, except for the days on which TPTD was administered. Saline injections were administered to control animals (C group, n = 4) once daily and to each group as a vehicle.
[…] The samples were centrifuged at 1600 x g, at 4°C for 10 minutes and plasma samples were collected in order to measure the concentration of TPTD. […]
Teriparatide acetate was synthesized at Asahi Kasei Pharma Corporation (Tokyo, Japan) and was used as a standard substance. The teriparatide acetate concentration in the rabbit plasma was quantified using a Rat PTH IRMA Kit (Immutopics, Inc., San Clemente, CA) according to the manufacturer’s instructions. The pharmacokinetic parameters were calculated using a non-compartmental model (Phoenix WinNonlin; Pharsight, Mountain View, CA).

[1] = 20 ug/kg, rabbit plasma, D20 (20 μg/kg sc once-daily), n=3, mean ± SD
[2] = 40 ug/kg, rabbit plasma, D40 (40 μg/kg sc once-daily), n=3, mean ± SD
[3] = 140 ug/kg, rabbit plasma, W140 (140 μg/kg sc once-weekly), n=3, mean ± SD
[4] = 280 ug/kg, rabbit plasma, W280 (280 μg/kg sc once-weekly), n=4, mean ± SD

`CC[C@H](C)[C@H](NC(=O)[C@H](CCC(=O)O)NC(=O)[C@H](CO)NC(=O)[C@@H](NC(=O)[C@@H](N)CO)C(C)C)C(=O)N[C@@H](CCC(N)=O)C(=O)N[C@@H](CC(C)C)C(=O)N[C@@H](CCSC)C(=O)N[C@@H](Cc1cnc[nH]1)C(=O)N[C@@H](CC(N)=O)C(=O)N[C@@H](CC(C)C)C(=O)NCC(=O)N[C@@H](CCCCN)C(=O)N[C@@H](Cc1cnc[nH]1)C(=O)N[C@@H](CC(C)C)C(=O)N[C@@H](CC(N)=O)C(=O)N[C@@H](CO)C(=O)N[C@@H](CCSC)C(=O)N[C@@H](CCC(=O)O)C(=O)N[C@@H](CCCN=C(N)N)C(=O)N[C@H](C(=O)N[C@@H](CCC(=O)O)C(=O)N[C@@H](Cc1c[nH]c2ccccc12)C(=O)N[C@@H](CC(C)C)C(=O)N[C@@H](CCCN=C(N)N)C(=O)N[C@@H](CCCCN)C(=O)N[C@@H](CCCCN)C(=O)N[C@@H](CC(C)C)C(=O)N[C@@H](CCC(N)=O)C(=O)N[C@@H](CC(=O)O)C(=O)N[C@H](C(=O)N[C@@H](Cc1cnc[nH]1)C(=O)N[C@@H](CC(N)=O)C(=O)N[C@@H](Cc1ccccc1)C(=O)O)C(C)C)C(C)C` [TPTD, Teriparatide] gave a level at 1 h (140 ug/kg, Day 22, 1 hour, W140 (140 μg/kg sc once-weekly), n=3) of 147 ng/mL, a level at 2 h (140 ug/kg, Day 22, 2 hour, W140 (140 μg/kg sc once-weekly), n=3) of 37.8 ng/mL and a level at 5 min (280 ug/kg, Day 1, 5 min, W280 (280 μg/kg sc once-weekly), n=4) of 60.6 ng/mL. The level at 0.25 h (280 ug/kg, Day 1, 15 min, W280 (280 μg/kg sc once-weekly), n=4) was 177 ng/mL, the level at 0.5 h (280 ug/kg, Day 1, 30 min, W280 (280 μg/kg sc once-weekly), n=4) was 295 ng/mL and the level at 1 h (280 ug/kg, Day 1, 1 hour, W280 (280 μg/kg sc once-weekly), n=4) was 255 ng/mL. For the same molecule, the level at 2 h (280 ug/kg, Day 1, 2 hour, W280 (280 μg/kg sc once-weekly), n=4) was 87.4 ng/mL, the level at 5 min (280 ug/kg, Day 22, 5 min, W280 (280 μg/kg sc once-weekly), n=4) was 67.7 ng/mL and the level at 0.25 h (280 ug/kg, Day 22, 15 min, W280 (280 μg/kg sc once-weekly), n=4) was 232 ng/mL. The level at 0.5 h (280 ug/kg, Day 22, 30 min, W280 (280 μg/kg sc once-weekly), n=4) was 356 ng/mL, the level at 1 h (280 ug/kg, Day 22, 1 hour, W280 (280 μg/kg sc once-weekly), n=4) was 280 ng/mL and the level at 2 h (280 ug/kg, Day 22, 2 hour, W280 (280 μg/kg sc once-weekly), n=4) was 62.4 ng/mL. The AUC [1] was 21.1 ± 3.67 ng·h/mL, the Cmax [1] was 19.8 ± 5.67 ng/mL and the Tmax [1] was 30 min. For the same molecule, the half-life (20 ug/kg, rabbit plasma, D20 (20 μg/kg sc once-daily), n=3, non-compartmental, mean ± SD) was 26.4 ± 9 min, the AUC [2] was 46.8 ± 10.7 ng·h/mL and the Cmax [2] was 34.3 ± 8.19 ng/mL. The Tmax [2] was 30 min, the half-life (40 ug/kg, rabbit plasma, D40 (40 μg/kg sc once-daily), n=3, non-compartmental, mean ± SD) was 55.8 ± 19.2 min and the AUC [3] was 188 ± 35.5 ng·h/mL. For the same molecule, the Cmax [3] was 133 ± 28 ng/mL, the Tmax [3] was 40.2 ± 17.4 min and the half-life (140 ug/kg, rabbit plasma, W140 (140 μg/kg sc once-weekly), n=3, non-compartmental, mean ± SD) was 55.8 ± 9.6 min. It also gave an AUC [4] of 390 ± 75.6 ng·h/mL, a Cmax [4] of 315 ± 67.8 ng/mL and a Tmax [4] of 45 ± 17.4 min. The half-life (280 ug/kg, rabbit plasma, W280 (280 μg/kg sc once-weekly), n=4, non-compartmental, mean ± SD) was 41.4 ± 16.2 min, the Tmax post-dose (rabbit plasma, D20 (20 μg/kg sc once-daily)) was 30 min and the Tmax post-dose (rabbit plasma, D40 (40 μg/kg sc once-daily)) was 30 min. The “estimated Tmax post-dose” value (rabbit plasma, W140 (140 μg/kg sc once-weekly)) was 40 min, the “T1/2 (elimination half-life) of plasma TPTD” value (rabbit plasma, W140 (140 μg/kg sc once-weekly), n=3, non-compartmental, mean ± SD) was 55.8 ± 9.6 min and the “estimated Tmax post-dose” value (rabbit plasma, W280 (280 μg/kg sc once-weekly)) was 45 min.
